# In US6270957A, “Non-Imuunosuppressive cyclosporins and their use in the prevention and treatment of HIV infection” (Wisconsin Alumni Research Foundation, priority 1999, dated 2001):
# Square brackets hold non-standard residues; d marks the D form. Side chains are listed from the residue outwards. Peptide text beside a SMILES is read from it. * marks the point of attachment. X2 = CC(C)CN(C[C@@H](O)[C@H](Cc1ccc(OCC(=O)*)cc1)NC(=O)O[C@H]1CCOC1)S(=O)(=O)c1ccc(N)cc1; X1 = NC(=O)C[C@H](NC(=O)OCc1ccccc1)C(=O)N[C@@H](Cc1ccccc1)[C@@H](O)CN1CCC[C@H]1C(=O)*; X3 = CC(C)(C)c1cc(OCC(=O)*)ccc1Sc1c(O)cc(-c2ccccc2)oc1=O; NMeLeu(3R-OH) = CN[C@H](C(=O)O)[C@H](O)C(C)C; NMeL = CN[C@@H](CC(C)C)C(=O)O; NMeV = CN[C@H](C(=O)O)C(C)C; dNMeS = CN[C@H](CO)C(=O)O; Abu = CC[C@H](N)C(=O)O
# What was measured:
# cyclophilin = cyclophilin (Homo sapiens, UniProt P62937); experiment: Inhibition of cyclophilin; assay type: biochemical; settings: read-out: Ki against cyclophilin
# Chain of cyclophilin (P62937 whole entry): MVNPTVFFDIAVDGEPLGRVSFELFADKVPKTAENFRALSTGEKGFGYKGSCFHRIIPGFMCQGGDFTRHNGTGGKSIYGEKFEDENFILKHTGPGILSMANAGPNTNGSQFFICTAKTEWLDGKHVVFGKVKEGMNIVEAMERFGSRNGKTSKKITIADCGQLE
# HIV protease = biological target: T1, HIV protease (Human immunodeficiency virus type 1 group M subtype B, UniProt P04585); experiment: Inhibition of HIV protease; assay type: biochemical; settings: read-out: Ki against HIV protease
# T1 construct: HIV protease is an aspartic protease that cleaves the immature viral protein gag-pol into mature structural proteins and enzymes
# HIV-1 = settings: CEM cells, HIV-1, 6 days, XTT; quadruplicate runs
# Experimental: The procedure used in the National Cancer Institute's test for agents active against human immunodeficiency virus (HIV) is designed to detect agents acting at any stage of the virus reproductive cycle. The assay basically involves the killing of T4 lymphocytes by HIV. Small amounts of HIV are added to cells, and two cycles of virus reproduction are necessary to obtain the required cell killing. Agents that interact with virions, cells, or virus gene-products to interfere with viral activities will protect cells from cytolysis. The system is automated in several features to accommodate large numbers of candidate agents and is generally designed to detect anti-HIV activity. However, compounds that degenerate or are rapidly metabolized in the culture conditions may not show activity in this screen. All tests are compared with at least one positive (e.g., AZT-treated) control done at the same time under identical conditions.
# Candidate agent is dissolved in dimethyl sulfoxide (unless otherwise instructed) then diluted 1:100 in cell culture medium before preparing serial half-log10 dilutions. […]
# Individual wells are analyzed spectrophotometrically to quantitate formazan production, and in addition are viewed microscopically for detection of viable cells and confirmation of protective activity. […]
# [1] = compared with DMP-323; cited from earlier work
# HIV = settings: read-out: anti-HIV potency IC90; cited from earlier work
SMILES,Ki (cyclophilin) [nM],Ki (HIV protease) [nM],NCI determination of anti-HIV activity (HIV-1),plasma concentrations [1],IC90 (HIV) [nM]
CC[C@@H]1NC(=O)[C@H]([C@H](O)C(C)C)N(C)C(=O)[C@H](C(C)C)N(C)C(=O)[C@H](CC(C)C)N(C)C(=O)[C@H](CC(C)C)N(C)C(=O)[C@@H](C)NC(=O)[C@H](CCCCNC(=O)[C@H](Cc2ccccc2)NC(=O)[C@@H](NC(=O)[C@@H]2CCCN2C[C@H](O)[C@H](Cc2ccccc2)NC(=O)[C@H](CC(N)=O)NC(=O)OCc2ccccc2)[C@@H](C)CC)NC(=O)[C@H](CC(C)C)N(C)C(=O)[C@H](C(C)C)NC(=O)[C@H](CC(C)C)N(C)C(=O)[C@@H](CO)N(C)C1=O [Compound 2.8] (cyclo([Abu][dNMeS][NMeL]V[NMeL]K([Phe-Ile-X1])[dA][NMeL][NMeL][NMeV][NMeLeu(3R-OH)])),20,1,–,–,–
CC[C@@H]1NC(=O)[C@H]([C@H](O)C(C)C)N(C)C(=O)[C@H](C(C)C)N(C)C(=O)[C@H](CC(C)C)N(C)C(=O)[C@H](CC(C)C)N(C)C(=O)[C@@H](C)NC(=O)[C@H](CCCCNC(=O)COc2ccc(Sc3c(O)cc(-c4ccccc4)oc3=O)c(C(C)(C)C)c2)NC(=O)[C@H](CC(C)C)N(C)C(=O)[C@H](C(C)C)NC(=O)[C@H](CC(C)C)N(C)C(=O)[C@@H](CO)N(C)C1=O [Compound 2.9] (cyclo([Abu][dNMeS][NMeL]V[NMeL]K(X3)[dA][NMeL][NMeL][NMeV][NMeLeu(3R-OH)])),9.3,3.4,–,–,–
CC[C@@H]1NC(=O)[C@H]([C@H](O)C(C)C)N(C)C(=O)[C@H](C(C)C)N(C)C(=O)[C@H](CC(C)C)N(C)C(=O)[C@H](CC(C)C)N(C)C(=O)[C@@H](C)NC(=O)[C@H](CCCCNC(=O)COc2ccc(C[C@H](NC(=O)O[C@H]3CCOC3)[C@H](O)CN(CC(C)C)S(=O)(=O)c3ccc(N)cc3)cc2)NC(=O)[C@H](CC(C)C)N(C)C(=O)[C@H](C(C)C)NC(=O)[C@H](CC(C)C)N(C)C(=O)[C@@H](CO)N(C)C1=O [Compound 2.10] (cyclo([NMeLeu(3R-OH)][Abu][dNMeS][NMeL]V[NMeL]K(X2)[dA][NMeL][NMeL][NMeV])),6,2.3,confirmed active,–,–
Nc1cccc(CN2C(=O)N(Cc3cccc(N)c3)[C@H](Cc3ccccc3)[C@H](O)[C@@H](O)[C@H]2Cc2ccccc2)c1 [DMP-450],–,–,–,much higher plasma concentrations,–
O=C(Nc1nc2ccccc2[nH]1)c1cccc(CN2C(=O)N(Cc3cccc(C(=O)Nc4nc5ccccc5[nH]4)c3)[C@H](Cc3ccccc3)[C@H](O)[C@@H](O)[C@H]2Cc2ccccc2)c1 [SD-146],–,–,–,–,5.1
